Experimental data as given in US20040175419A1, “Control of compactibility through cystallization” (priority 2001, published 2004).

Key:
Assay type in all cases: physicochemical
[1] = Bonding Index calculated from tensile strength and dynamic indentation hardness
Excerpt: The Bonding Index of the material can be calculated from the tensile strength measurements as well as the dynamic indentation hardness measurements described above using the equation shown below: [formula]
The highest bonding index value observed today is that of microcrystalline cellulose Avicel PH 101 which is 0.04. The bonding index of Lot # 2 was 0.034±0.001.

[2] = Compactability (slope of tensile strength versus compression pressure) of 80% API powder blend compressed on an Instron; conditions: for compactability of the powder blend: 80% bulk drug and 20% excipient
Experimental: In order to evaluate the compressibility and compactability of all API lots generated by modifying the crystallization process, a blend of 80% API, 19.5% microcrystalline cellulose and 0.5% magnesium stearate was prepared by mixing in a tumble mixer for 5 minutes. Each mixture was then compressed on an Instron (Universal Stress-Strain Analyzer) using a 0.5 inch diameter tooling (upper and lower punches and die) at a speed of 100 mm/min at compression forces of 5, 10, 15, 20 and 25 kN each for a replicate of three tablets. The tablet dimensions were measured using a digital Vernier calliper and the strength of the tablets were determined using an Erweka hardness tester. The volume of the tablet can be calculated from the tablet dimensions normalized for the true density of the mixture being compressed. The compressibility curves are generated by plotting the solid fraction of the tablet generated at each compression pressure versus the respective compression pressure. The area under such a curve represents the extent of volume reduction. The force required to break the tablets is normalized for the area of the tablet to obtain the tensile strength value. Slopes for profiles of tensile strength versus the compression pressure represent the compactability of the material while the area under the curve of tensile strength versus the solid fraction of the tablets represents the extent of compaction or toughness of the material.

[3] = Agglomerate size of API crystallized at different supersaturation
Experimental: The crystallization parameters and seeding conditions (using “as is” API at 0.1-0.2%) described in the procedure outlined in Table 1 was adopted as a starting point for modifications. By changing the ratio of solvent/antisolvent (isopropyl acetate/heptane) in step 3 (Table 1) from 1.67 to 1.0 and varying the pot temperature from 80 to 50° C., the degree of supersaturation was increased by a factor of 5 (from about 3.5 to about 17.5). The materials made from these conditions are generally agglomerates formed by a cluster of primary crystals plus the conjunction material which glue these crystals together.
At low supersaturation, large agglomerates (500-1000 μm) with large primary crystals (also large) were obtained. At high supersaturation the procedure generates small agglomerates (200-300 μm) with smaller primary crystals. This is consistent with other crystallization systems, in which nucleation is rate limiting, where high supersaturation favors the formation of agglomerates and mild supersaturation results in elementary crystals. Generally, these agglomerated materials compact quite poorly and create difficulties for large scale, high speed tablet manufacture. […] The manipulation of supersaturation was consequently not pursued further. […]

[4] = Crystallinity by X-ray diffraction after milling; conditions: milled API, FIG. 4
Excerpt: This amorphization through the milling process can lead to chemical instability of the API. […] This clearly illustrated that modification of the crystallization process parameters to achieve higher compactability of the API is the preferred choice.

[5] = Solid-state stability of crystal forms; conditions: compared with forms 5, 6, 7
Excerpt: Due to the unique structure of the API material at least four different groups of crystal structures were observed (forms 4, 5, 6, 7) and analyzed by single crystal x-ray. […] Orthorhombic Form 6 consisted of a group of isostructural (1:1) solvates which accommodates solvents such as EtOAc, acetone and MEK. […] An exhaustive study of API crystallization on the feasibility of various solvents, control of polymorphs, and robustness of process concluded that the selected form could be consistently produced and kept stable in iPrOAc (or BuOAc)/Heptane (or Cyclohexane), following which a reproducible crystallization procedure in the iPrOAc/heptane solvent system was developed and implemented. This procedure, associated with the aminolysis of penultimate compound (Chemical Abstracts Systematic Name, (αS)-α-(Benzoylthio)-3,4,4-trimethyl-2,5-dioxo-1-imidazolidinebutanoyl-L-leucyl-N,3-dimethyl-L-valinamide), is successful in purging undesirable side products/impurities such as α,α′-Dithiobis[N-[1-[[[2,2-dimethyl-1-[(methylamino)carbonyl]propyl]amino]-carbonyl]-3-methylbutyl]-3,4,4-trimethyl-2,5-dioxo-1-imidazolidinebutanamide] which is the S,S′-dimer of the API. The crystallization procedure is further described in Table 1.

[6] = Brittle fracture index (BFI) from compacts with and without a 1 mm hole; conditions: square compacts; scale 0 to 1
Experimental: Similarly, the tensile strength is determined for square compacts that are prepared with a magnified flaw using the tri-axial decompression press and a upper punch having a 1 mm diameter pin spring loaded on its surface. This pin facilitates the introduction of a 1 mm diameter hole in the center of the compact. The tensile strength values of the compacts with and without a hole are used to evaluate the brittle fracture index (BFI) of the material as shown below: [formula]
Where, σT is the tensile strength of the square compacts without a hole in the center and σTo is the tensile strength of the square compacts with a 1 mm hole in the center that acts as a stress concentrator.

[7] = Dynamic indentation hardness by pendulum impact apparatus; conditions: square compacts without a hole
Experimental: The square compacts (without a hole) are then subjected to a dynamic indentation hardness evaluation using a pendulum impact apparatus as described in Tablet Indices^11. The velocity at which the pendulum sphere impacts the compact as well as the speed with which the pendulum sphere is rebound from the compact is recorded. The indentation made on the compact surface by the procedure described above is measured with a surface analyzer that facilitates computation of the chordal radius of the indentation. These measurements are then used to calculate the dynamic indentation hardness of the material using the equation described below: [formula]
where, m and r are the mass and radius of the indenting sphere, respectively and hi and hr are the inbound and rebound heights, respectively and a is the chordal radius of the indentation created on the compact surface. G is acceleration due to gravity. […] This value is much lower than that of the standard compressible filler, Avicel PH 102 that has a hardness of 352 MN/m^2. […] The hardness value for Lot # 2 was 52.9 MN/M^2±8.2 MN/M^2. The increase in hardness of the material from the optimized crystallization process is not significant enough to change the conclusion drawn earlier about its ductility.

[8] = Tensile strength of square compacts from tri-axial decompression press (Hiestand tablet indices); conditions: square compacts prepared at a solid fraction of 0.85
Experimental: In order to characterize the deformation mechanism of the API, Hiestand's tablet indices (see, E. N. Hiestand and D. P. Smith, Powder Technology, 38, pp 145-159 (1984) hereby incorporated by reference) were evaluated. The identical procedure as developed by E. N. Hiestand, at the Pharmacia and Upjohn company was adapted for evaluating the deformation properties of the API. In brief, square shaped compacts (1.97 cm^2) were prepared using a tri-axial decompression Loomis Engineering press. This tri-axial press facilitates compression pressure relief in three dimensions as opposed to […] as in the uni-axial press. […] Through tri-axial decompression it is possible to produce virtually flawless compacts. The API was compressed with the procedure describe above to produce compacts having a relative density or solid fraction of 0.85. The compacts were then subjected to tensile strength testing on an Instron stress-strain analyzer at a cross head speed of about 0.8 mm/min. This speed allowed the time constant between the peak stress and 1/e times the peak stress to be a constant of 10 seconds. […]
where, σ is the tensile strength calculated and F is the force required to initiate crack propagation in the compact and l and b are the length and breadth of the compact, respectively. […]

CNC(=O)[C@@H](NC(=O)[C@H](CC(C)C)NC(=O)[C@@H](S)CCN1C(=O)N(C)C(C)(C)C1=O)C(C)(C)C [API, N-[(2S)-2-Mercapto-1-oxo-4-(3,4,4-trimethyl-2,5-dioxo-1-imidazolidinyl)butyl]-L-leucyl-N,3-dimethyl-L-valinamide]
bonding index [1]: 0.025±0.001 | compactability ([2]; 1% ground seeds, with sonication): 12.3 kPa/MPa | product compactability ([2]; 50-g sample, 1% AirJet-milled seeds): 4.2 kPa/MPa | product compactability ([2]; 50-g sample, 1% ball-milled seeds): 5.9 Kpa/MPa | product compactability ([2]; 50-g sample, 1% ground seeds, without sonication): 10.5 kPa/MPa | product compactability ([2]; 50-g sample, 1% seeds crystallized from a ground seeded batch): 5.3 kPa/MPa | compactability ([2]; 50-g sample, 1.5% ball-milled seeds): 7.0 kPa/MPa | compactability ([2]; 50-g sample, 4% ground seeds): 14.4 kPa/MPa | improvement in compactability over material generated by the current process ([2]; 50-g sample, 4% ground seeds): ~10 fold | compactability ([2]; 50-g sample, 5% ground seeds): 12.6 kPa/MPa | powder blend compactability ([2]; 50 g scale, crystallization seeded with 5% large agglomerates): 3.65 kPa/MPa | compactability of the powder blend ([2]; 100 Kg scale, "as is" material at 1.5% seed loading): 2.8-3.4 kPa/Mpa | compactability of the powder blend ([2]; "as is" seed, 0.1% seed loading (representative)): 1.4-1.7 kPa/Mpa | change of compactability after milling ([2]; milled API, FIG. 3): gain in compactability | agglomerate size ([3]; high supersaturation): 200-300 μm | agglomerate size ([3]; low supersaturation): 500-1000 μm | change of crystallinity after milling (X-ray diffraction patterns) [4]: reduction in the crystallinity

CNC(=O)[C@@H](NC(=O)[C@H](CC(C)C)NC(=O)[C@@H](S)CCN1C(=O)N(C)C(C)(C)C1=O)C(C)(C)C [Form 4, N-[(2S)-2-Mercapto-1-oxo-4-(3,4,4-trimethyl-2,5-dioxo-1-imidazolidinyl)butyl]-L-leucyl-N,3-dimethyl-L-valinamide]
stability of crystal structure in the solid state [5]: did not transform/decompose to other crystalline structures in the solid state

CNC(=O)[C@@H](NC(=O)[C@H](CC(C)C)NC(=O)[C@@H](S)CCN1C(=O)N(C)C(C)(C)C1=O)C(C)(C)C [Lot# 1, N-[(2S)-2-Mercapto-1-oxo-4-(3,4,4-trimethyl-2,5-dioxo-1-imidazolidinyl)butyl]-L-leucyl-N,3-dimethyl-L-valinamide]
brittle fracture index (BFI) [6]: 0.14±0.03 | dynamic indentation hardness [7]: 35.8 MN/m^2 | tensile strength ([8]; listed as MMPI Lot# 1): 90.46 N/cm^2

CNC(=O)[C@@H](NC(=O)[C@H](CC(C)C)NC(=O)[C@@H](S)CCN1C(=O)N(C)C(C)(C)C1=O)C(C)(C)C [Lot# 2, N-[(2S)-2-Mercapto-1-oxo-4-(3,4,4-trimethyl-2,5-dioxo-1-imidazolidinyl)butyl]-L-leucyl-N,3-dimethyl-L-valinamide]
bonding index [1]: 0.034±0.001 | brittle fracture index (BFI) [6]: 0.20±0.02 | dynamic indentation hardness [7]: 52.9 MN/m^2 | tensile strength [8]: 181.90 N/cm^2
